Data reported in patent US12138272B2, “Methods and compositions for treating amyotrophic lateral sclerosis” (Amylyx Pharmaceuticals, Inc., priority 2022, dated 2024).
Converted amounts (≈) assume the structure as drawn. “Also recorded” adds a separate entry of the source. Marks after values point to notes of the source that are not given here.

What was measured:
[1] = Solubility in stock solvent and assay buffers
BSEP [2] = target: T1, BSEP (Homo sapiens, UniProt O95342); assay: ATP-dependent uptake of test article by BSEP-transfected Sf9 membrane vesicles (substrate assessment); details: for substrate of BSEP (conclusion in words): criteria ≥2-fold ATP-dependent uptake and >50% inhibition by selective inhibitor
T1 sequence (O95342 whole entry): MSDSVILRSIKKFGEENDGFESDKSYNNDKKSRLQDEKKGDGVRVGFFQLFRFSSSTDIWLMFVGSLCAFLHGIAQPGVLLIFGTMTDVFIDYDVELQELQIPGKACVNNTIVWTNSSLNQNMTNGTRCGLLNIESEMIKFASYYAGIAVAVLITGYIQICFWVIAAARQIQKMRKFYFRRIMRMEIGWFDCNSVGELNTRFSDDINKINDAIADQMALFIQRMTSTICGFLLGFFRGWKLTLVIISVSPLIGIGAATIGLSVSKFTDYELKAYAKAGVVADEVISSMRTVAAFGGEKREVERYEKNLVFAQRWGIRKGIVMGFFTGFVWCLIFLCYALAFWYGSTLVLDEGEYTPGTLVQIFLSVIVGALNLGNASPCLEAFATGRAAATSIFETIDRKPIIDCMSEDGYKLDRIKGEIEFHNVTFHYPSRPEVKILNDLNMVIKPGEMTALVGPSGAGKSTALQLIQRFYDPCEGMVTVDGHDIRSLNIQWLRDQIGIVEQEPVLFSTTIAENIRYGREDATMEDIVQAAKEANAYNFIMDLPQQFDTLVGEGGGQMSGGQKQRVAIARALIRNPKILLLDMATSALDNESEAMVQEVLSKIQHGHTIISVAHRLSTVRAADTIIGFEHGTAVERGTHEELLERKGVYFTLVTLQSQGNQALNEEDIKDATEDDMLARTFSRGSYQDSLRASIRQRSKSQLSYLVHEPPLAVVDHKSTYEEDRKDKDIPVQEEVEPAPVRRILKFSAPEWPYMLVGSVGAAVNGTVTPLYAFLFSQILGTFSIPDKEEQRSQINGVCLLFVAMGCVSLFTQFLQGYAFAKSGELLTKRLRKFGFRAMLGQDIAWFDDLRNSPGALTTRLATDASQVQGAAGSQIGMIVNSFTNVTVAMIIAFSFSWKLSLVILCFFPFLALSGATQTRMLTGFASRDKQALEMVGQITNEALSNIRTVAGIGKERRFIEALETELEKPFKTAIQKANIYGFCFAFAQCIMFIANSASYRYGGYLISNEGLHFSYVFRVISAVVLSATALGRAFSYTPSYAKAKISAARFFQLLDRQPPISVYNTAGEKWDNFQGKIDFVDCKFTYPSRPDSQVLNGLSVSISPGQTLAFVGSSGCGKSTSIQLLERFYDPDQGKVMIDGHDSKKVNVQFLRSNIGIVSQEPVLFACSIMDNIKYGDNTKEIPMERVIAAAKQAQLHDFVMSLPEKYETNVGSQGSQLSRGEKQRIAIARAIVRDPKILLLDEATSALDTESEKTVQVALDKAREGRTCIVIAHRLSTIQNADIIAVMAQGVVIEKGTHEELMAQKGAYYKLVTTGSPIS

BSEP [3] = target: T1, BSEP; assay: Inhibition of 3H-taurocholic acid uptake by BSEP membrane vesicles (inhibitor assessment); details: for inhibitor of BSEP (conclusion in words): criterion >25% concentration-dependent inhibition of probe substrate uptake; for ATP-Dependent Uptake Activity of 3H-taurocholic acid / Signal-to-Noise Ratio / Uptake Activity of 3H-taurocholic acid, Mg-AMP / Uptake Activity of 3H-taurocholic acid, Mg-ATP: 3H-taurocholic acid 1 μM
Caco-2 cells = assay: Recovery of test article in the Caco-2 efflux assay; assay type: in vitro ADME; details: 1 and 10 μM, in the presence of cells
Description: Non-specific binding of phenylacetic acid to the transwell assay plate in the absence of cells was not conducted. However, the recovery of the test article (1 and 10 μM) was determined in the Caco-2 efflux assay, in the presence of cells, and was acceptable.

BSEP [4] = target: T1, BSEP; assay: in vitro
[5] = test article 1 μM + cyclosporine 20 μM
[6] = test article 10 μM + cyclosporine 20 μM

O=C(O)Cc1ccccc1 [Phenylacetic acid]
solubility ([1]; aqueous buffer, kinetic from dmso stock): 7.5 mM (≈ 1.02 mg/mL)
solubility ([1]; methanol, organic solvent or mixture): 1500 mM (≈ 204 mg/mL)
ATP-Dependent Uptake Activity of test article (BSEP [2]; test article 1 μM): 24.2 pmol/minute/mg protein
Signal-to-Noise Ratio (BSEP [2]; test article 1 μM): 9.95
Uptake Activity of test article, Mg-AMP (BSEP [2]; test article 1 μM): 2.71^b pmol/minute/mg protein
Uptake Activity of test article, Mg-ATP (BSEP [2]; test article 1 μM): 26.9 pmol/minute/mg protein
ATP-Dependent Uptake Activity of test article (BSEP [2]; [5]): 18.3 pmol/minute/mg protein
Signal-to-Noise Ratio (BSEP [2]; [5]): 3.41
Uptake Activity of test article, Mg-AMP (BSEP [2]; [5]): 7.60^c pmol/minute/mg protein
Uptake Activity of test article, Mg-ATP (BSEP [2]; [5]): 25.9 pmol/minute/mg protein
ATP-Dependent Uptake Activity of test article (BSEP [2]; test article 10 μM): 814 pmol/minute/mg protein
Signal-to-Noise Ratio (BSEP [2]; test article 10 μM): 12.6
Uptake Activity of test article, Mg-AMP (BSEP [2]; test article 10 μM): 70.3 pmol/minute/mg protein
Uptake Activity of test article, Mg-ATP (BSEP [2]; test article 10 μM): 884 pmol/minute/mg protein
ATP-Dependent Uptake Activity of test article (BSEP [2]; [6]): 772 pmol/minute/mg protein
Signal-to-Noise Ratio (BSEP [2]; [6]): 10.1
Uptake Activity of test article, Mg-AMP (BSEP [2]; [6]): 84.7 pmol/minute/mg protein
Uptake Activity of test article, Mg-ATP (BSEP [2]; [6]): 857 pmol/minute/mg protein
ATP-dependent BSEP uptake activity relative to AMP uptake (BSEP [2]; test article 1 and 10 μM): > 2 fold
substrate of BSEP (conclusion in words) (BSEP [2]; test article 1 and 10 μM): not identified as a substrate
substrate of BSEP (conclusion in words) (BSEP [2]; test article 1 and 10 μM, listed as phenylacetic acid): not a substrate; also recorded: unlikely that phenylacetic acid is a substrate
inhibition of test article uptake by cyclosporine A (BSEP [2]; test article 1 and 10 μM, cyclosporine A 20 μM): not inhibited by cyclosporine A
inhibitor of BSEP (conclusion in words) (BSEP [3]): strongly inhibited; also recorded: identified as an inhibitor of BSEP; also recorded: inhibited BSEP
inhibitor of BSEP (conclusion in words) (BSEP [3]; listed as phenylacetic acid): inhibit BSEP
ATP-Dependent Uptake Activity of 3H-taurocholic acid (BSEP [3]; inhibitor 750 μM): 4.68 pmol/minute/mg protein
Signal-to-Noise Ratio (BSEP [3]; inhibitor 750 μM): 17.2
Uptake Activity of 3H-taurocholic acid, Mg-AMP (BSEP [3]; inhibitor 750 μM): 0.288 pmol/minute/mg protein
Uptake Activity of 3H-taurocholic acid, Mg-ATP (BSEP [3]; inhibitor 750 μM): 4.96 pmol/minute/mg protein
ATP-Dependent Uptake Activity of 3H-taurocholic acid (BSEP [3]; inhibitor 7500 μM): −0.136 pmol/minute/mg protein
Signal-to-Noise Ratio (BSEP [3]; inhibitor 7500 μM): 0.731
Uptake Activity of 3H-taurocholic acid, Mg-AMP (BSEP [3]; inhibitor 7500 μM): 0.506 pmol/minute/mg protein
Uptake Activity of 3H-taurocholic acid, Mg-ATP (BSEP [3]; inhibitor 7500 μM): 0.370 pmol/minute/mg protein
recovery of the test article in the Caco-2 efflux assay (Caco-2 cells): acceptable
activity at 30 min, 750 μM (BSEP [4]): 99.6%
activity at 30 min, 7500 μM (BSEP [4]): 0%
potency estimated from few doses at 30 min (BSEP [4]): < 7.5 mM
